Measured values: patent US20060122281A1, “Regimen for treating prostate tissue and surgical kit for use in the regimen” (AMS Research Corporation, priority 2001, published 2006)
Values joined by “and” are separate entries in the source; they are usually repeats but may differ in a detail not shown here. Identical values can stand only once.

Experiments:
[1] = test system: Human patients exhibiting symptoms of BPH; assay: Prostate size by MRI after transurethral ethanol ablation with coadministered bicalutamide; format: in vivo; conditions: individual patient
Procedure: (§1) Measurements of each patient's prostate size were obtained prior to ethanol ablation by MRI. Flowmetry measurements were also taken.
(§2) Each patient was then administered ethanol ablation therapy by transurethral injection directly into prostate tissue, as summarized in Table 1. Total amount of ethanol injected ranged from about 22% to about 38% relative to the volume of the patient's prostate. The number of injection sites ranged from 3 to 11; the average number of injection sites was 5.8. Following ethanol ablation therapy, each patient was administered bicalutamide, 150 mg orally each day for sixty days, beginning on the day of treatment.
(§3) A three-month and six-month follow-up examination was done for each patient to evaluate prostate size and flowmetry results.

[2] = dosages up to 200 mg per day, long-term clinical trials; cited from earlier work
[3] = test system: Human patients exhibiting symptoms of BPH; assay: International Prostate Symptom Score questionnaire; format: in vivo; conditions: individual patient
Procedure: as §2, with “Measurements of each patient's prostate size were obtained prior to ethanol ablation by MRI. Flowmetry measurements were also taken. Each” for “Each”, “treatment. Survey data was also acquired pre-treatment and at the three-month and six-month followups. Patients were evaluated for subjective symptom severity using an International Prostate Symptom Score questionnaire.” for “treatment.”

[4] = test system: Human patients exhibiting symptoms of BPH; assay: Flowmetry after transurethral ethanol ablation with coadministered bicalutamide; format: in vivo; conditions: individual patient
Procedure: as §1, §2, §3

prostate weight = conditions: compared with antiandrogens presently used; cited from earlier work

| SMILES | Post-treatment Evaluation (3 months) Size ([1]; 3 months after transurethral ethanol ablation plus bicalutamide 150 mg orally each day for sixty days) | Post-treatment Evaluation (6 months) Size ([1]; 6 months after transurethral ethanol ablation plus bicalutamide 150 mg orally each day for sixty days) | tolerability [2] | IPSS at 3 months ([3]; 3 months after ethanol ablation plus bicalutamide 150 mg orally daily for sixty days) | IPSS at 6 months ([3]; 6 months after ethanol ablation plus bicalutamide 150 mg orally daily for sixty days) | Post-treatment Evaluation (3 months) Qmax ([4]; maximum flow rate, 3 months after ethanol ablation plus bicalutamide 150 mg orally daily for sixty days) | Post-treatment Evaluation (6 months) Qmax ([4]; maximum flow rate, 6 months after ethanol ablation plus bicalutamide 150 mg orally daily for sixty days) | Post-treatment Evaluation (3 months) Qmed ([4]; median flow rate, 3 months after ethanol ablation plus bicalutamide 150 mg orally daily for sixty days) | Post-treatment Evaluation (6 months) Qmed ([4]; median flow rate, 6 months after ethanol ablation plus bicalutamide 150 mg orally daily for sixty days) | potency in reducing prostate weight (prostate weight) |
| --- | --- | --- | --- | --- | --- | --- | --- | --- | --- | --- |
| CC(O)(CS(=O)(=O)c1ccc(F)cc1)C(=O)Nc1ccc(C#N)c(C(F)(F)F)c1 (racemic) [bicalutamide, (+−) N-[4-cyano-3-(trifluoromethyl)phenyl]-3-[(4-fluorophenyl)sulfonyl]-2-hydroxy-2-methyl propanimide] | 40 g (2×) and 36 g and 28 g and 30 g (2×) and 25 g and 78 g (2×) and 63 g and 45 g and 42 g and 54 g and 98 g and 15 g | 28 g (2×) and 30 g and 20 g (3×) and 21 g (2×) and 19 g (2×) and 32 g and 18 g (2×) and 27 g and 23 g | well-tolerated | 10 (2×) and 4 (2×) and 8 (2×) and 24 and 9 and 21 and 14 and 15 and 13 and 3 and 20 and 18 | 9 (2×) and 6 and 8 (4×) and 14 and 12 (2×) and 7 and 10 and 3 and 20 and 4 | 18 mL/sec (2×) and 7 mL/sec and 4 mL/sec and 12 mL/sec (2×) and 11 mL/sec (2×) and 17 mL/sec (2×) and 13 mL/sec (2×) and 15 mL/sec and 10 mL/sec and 21 mL/sec | 18 mL/sec and 13 mL/sec (2×) and 19 mL/sec and 15 mL/sec (4×) and 14 mL/sec and 30 mL/sec and 17 mL/sec (2×) and 12 mL/sec and 20 mL/sec and 21 mL/sec | 11 mL/sec and 3 mL/sec (2×) and 4 mL/sec and 7 mL/sec (4×) and 5 mL/sec (3×) and 8 mL/sec and 2 mL/sec (2×) and 9 mL/sec | 11 mL/sec (3×) and 10 mL/sec (4×) and 9 mL/sec (5×) and 13 mL/sec and 8 mL/sec and 5 mL/sec | – |
| CC1(C)C(=O)N(c2ccc(C#N)c(C(F)(F)F)c2)C(=O)N1CC#N [RU 58642] | – | – | – | – | – | – | – | – | – | more potent |
